These results are taken from US10125365B2, “Micro-RNAs and compositions comprising same for the treatment and diagnosis of serotonin-, adrenalin-, noradrenalin-, glutamate-, and corticotropin-releasing hormone- associated medical conditions” (Yeda Research and Development Co. Ltd., priority 2014, dated 2018).

One data set relates to miR-135a. The data set is described as follows: Real time PCR of miR-135a in raphe nucleus after antidepressant treatment. It counts as in vivo, mouse. Particulars: mice, 20 mg/kg i.p., acute or chronic administration. How it is done: Mice received i.p. injection of tricyclic-Imipramine, or SSRI-Fluoxetine, or NRI-Reboxetine (20 mg/kg in saline) or saline.
Blunted 14G syringes were used to extract the RN region from 3 mm slices removed from the matrix.
(§1) For behavioral testing, mice were injected with 20 mg/kg SSRI i.p. 30 minutes prior to the test.
Samples were then analyzed using SYBR® Green
Background: In qPCR the cycle at which signal appears reflects the starting amount.

A further data set concerns miR-19a/b. The data set can be described thus: miR-19a/b levels in prefrontal cortex after Reboxetine. To be noted: mice. It is filed as in vivo, mouse. An excerpt: These animals will be also tested for anxiety like behavior, locomotor activity and memory performance. Furthermore, the levels of expression of miR-19a and miR-19b are examined in different regions of interest (E.G the hippocampus, amygdala and forebrain) following an acute and chronic systemic treatment with the Noradrenaline reuptake inhibitor Reboxetine in WT mice.
The physiological link between miRNA-19 and Adrb1 was studied by assessing the level of miR-19a/b in the prefrontal cortex (PFC) of mice that were injected with Reboxetine, a noradrenalin reuptake inhibitor (NRI), either acutely or chronically (FIGS. 12A-D).

Another data set concerns Slc6a4 3′UTR. The data set can be described thus: Luciferase reporter assay, Slc6a4 3′UTR. It is filed as cell-based, mouse. To be noted: HEK293T cells, miR over-expressing vector vs empty vector. As for the experimental part:
(§2) 3′UTR sequences of Slc6a4, Htr1a, MaoA and Tph2 were PCR amplified from mouse genomic DNA, or total brain cDNA. 3′UTR PCR fragments were ligated into pGEM-T easy vector (Promega) according to the manufacturer's guidelines, and further subcloned into a single NotI site at the 3′ end of luciferase in the Psicheck2 reporter plasmid (Promega). […] Cloning orientation was verified by diagnostic cuts and by sequencing.
(§3) HEK293T cells were grown on poly-L-lysine in 48-well format to a 70-85% confluence and transfected using Polyethyleneimine with the following plasmids: 5 ng of Psicheck2-3′UTR plasmid and 215 ng of over-expressing vector for a specific miRNA, or empty-miR-vec over-expression plasmids. 24 hours following transfection cells were lysed and luciferase reporters activity were assayed as previously described [Chen A. et al. Mol Endocrinol (2005) 19: 441-58]. Renilla luciferase values were normalized to control firefly luciferase levels (transcribed from the same vector but not affected by 3′UTR tested) and averaged across six well repetitions per condition.
3′ UTRs sequences of Slc6a4 and Htr1a were PCR amplified from mouse genomic DNA. 3′UTRs PCR fragments were ligated into pGEM-T easy vector (Promega) according to the manufacturer's guidelines, and further sub-cloned into a single NotI site at the 3′ end of luciferase in the psiCHECK-2 reporter plasmid (Promega). […]
(In general: A reporter such as luciferase makes a cellular process visible.)

The test system of another data set is Htr1a 3′UTR. The data set is described as follows: Luciferase reporter assay, Htr1a 3′UTR. To be noted: for repression of Htr1a 3′UTR (luciferase): HEK293T cells, miR over-expressing vector vs empty vector; for seed match through which Htr1a 3′UTR is repressed: Htr1a miR-135 seed matches mutated individually or both. It counts as cell-based, mouse. How it is done: as §2, §3
3′UTR sequence of Htr1a was PCR amplified from mouse genomic DNA. 3′UTR PCR fragments were ligated into pGEM-T easy vector (Promega) according to the manufacturer's guidelines, and further subcloned into a single NotI site at the 3′ end of luciferase in the Psicheck2 reporter plasmid (Promega). Cloning orientation was verified by diagnostic cuts and by sequencing.
as §3, with “plasmids:” for “plasmids: 5 ng of”, “Psicheck2-3′UTR plasmid, pre-mmu-miR-182 over-expression in pEGFP” for “Psicheck2-3′UTR”, “plasmid” for “plasmid and 215 ng of over-expressing vector for a specific miRNA,”, “pEGFP plasmid alone (clontech).” for “empty-miR-vec over-expression plasmids.”
3′ UTRs sequences of Slc6a4 and Htr1a were PCR amplified from mouse genomic DNA. 3′UTRs PCR fragments were ligated into pGEM-T easy vector (Promega) according to the manufacturer's guidelines, and further sub-cloned into a single NotI site at the 3′ end of luciferase in the psiCHECK-2 reporter plasmid (Promega). […] Cloning orientation was verified by diagnostic cuts and sequencing.
Twenty-four hours following transfection cells were lysed and luciferase reporter activities were assayed as previously described (Kuperman et al., 2011). […]

The next data set has as its system miR-135b. The data set can be described thus: Real time PCR of miR-135b in raphe nucleus after antidepressant treatment. To be noted: mice, 20 mg/kg i.p., acute or chronic administration.
Data set [1] deals with mice. The data set can be described thus: Social avoidance test after chronic social defeat. To be noted: mice exposed to social defeat, chronic treatment vs saline. It is filed as in vivo, mouse. As for the experimental part:
Mice were subjected to a social defeat protocol as previously described (Elliott et al., 2010). Briefly, mice were placed in a home cage of an aggressive ICR mouse where they physically interacted for five minutes. […] Perforated clear Plexiglas dividers were then placed between the animals and the mice remained in the same cage for 24 hours to allow sensory contact. The procedure was then repeated with an unfamiliar ICR mouse for 10 consecutive days.
as §1
Social avoidance test: In the social avoidance test, mice were placed in a 15 cm×35 cm arena with a small 15 cm×8 cm neighboring chamber separated by a divider with small open slits allowing full sensory contact. The tested mice were allowed to habituate to the arena for three minutes, and then an unfamiliar ICR mouse was placed in the neighboring chamber for another three minutes. Time spent near the divider was quantified using video tracking by Ethovision software (Noldus, Wageningen, Netherlands). Interaction ratio was calculated by dividing the time the mice spent in a defined area near the unfamiliar ICR to the time the mice spent in the same area during habitation, and multiplied by 100.

The test system of data set [2] is mice. The data set can be described thus: Tail suspension test. It counts as in vivo, mouse. Particulars: miR135b KD and control KD mice. As for the experimental part:
The tail suspension test was performed in the TSE Tail Suspension Monitor (TSE Systems, Bad Homburg, Germany). Each mouse was taped by the tip of its tail, and suspended from the force sensor for 10 minutes. Time spent immobile and time spent struggling were calculated and recorded by the software based on pre-set thresholds.

Take `CCOc1ccccc1OC(c1ccccc1)C1CNCCO1` (stereo not drawn) [Reboxetine]: the “miR-135a expression levels in the RN” value in the data set with miR-135a is “no differences”. For the same molecule, the “miR-19 a/b levels in the PFC, acute administration” value with miR-19a/b (acute) was “down regulated”. The “miR-19 a/b levels in the PFC, chronic administration” value with miR-19a/b (chronic) is “upregulated”.

As to “miR-135b: mature miR-135b, Accession No. MIMAT0000758 (SEQ ID NO: 62); tested via overexpressing vector (SEQ ID NO: 211) (UAUGGCUUUUCAUUCCUAUGUGA; listed as Homo sapiens)”, the “repression of Slc6a4 3′UTR (luciferase)” value in the data set on Slc6a4 3′UTR is “approximately 50%”. Moreover, in the data set on Htr1a 3′UTR, the “repression of Htr1a 3′UTR (luciferase)” value was “approximately 50%” and the “seed match through which Htr1a 3′UTR is repressed” value is “via both predicted sites”.

Consider “miR-135a: mature miR-135a, Accession No. MIMAT0000428 (SEQ ID NO: 61); tested via overexpressing vector (SEQ ID NO: 210) (UAUGGCUUUUUAUUCCUAUGUGA; listed as Homo sapiens)”, for which the “repression of Slc6a4 3′UTR (luciferase)” value in the data set with Slc6a4 3′UTR was “approximately 30%”. Moreover, in the data set on Htr1a 3′UTR, the “repression of Htr1a 3′UTR (luciferase)” value is reported as “approximately 30%”; the “seed match through which Htr1a 3′UTR is repressed” value is “via the distal and not the proximal seed match”.

Consider `CN(C)CCCN1c2ccccc2CCc2ccccc21` [Imipramine], for which the “miR-135a expression levels in the RN” value is recorded as “increased” in the data set with miR-135a (20 mg/kg) and “significantly increased” in the data set with miR-135a (listed as imipramine, 20 mg/kg). Besides, in the data set with miR-135b, the “miR-135b expression levels in the RN” value is “increased”. The “social avoidance (interaction ratio)” value with mice [1] was “not those who received imipramine developed social avoidance”.

For the molecule `CNCCC(Oc1ccc(C(F)(F)F)cc1)c1ccccc1` (stereo not drawn) [Fluoxetine], the “miR-135a expression levels in the RN” value in the data set on miR-135a is reported as “robust increase”. Besides, the “immobility time, tail suspension test, treated vs basal” value in the data set with mice [2] was “decrease in immobility time”.
